According to the supplement of paper PMC10307832:

Tests used:
Assay in all cases: relative viability (nuclei count vs DMSO), 5 days (fraction); higher = more cells survive
CAP-232 + Foretinib = compound: C[C@H]([C@@H](C(=O)N)NC(=O)[C@@H]1CSSC[C@@H](C(=O)N[C@H](C(=O)N[C@@H](C(=O)N[C@H](C(=O)N1)CCCCN)CC2=CNC3=CC=CC=C32)CC4=CC=C(C=C4)O)NC(=O)[C@@H](CC5=CC=CC=C5)N)O [CAP-232] + COc1cc2c(Oc3ccc(NC(=O)C4(C(=O)Nc5ccc(F)cc5)CC4)cc3F)ccnc2cc1OCCCN1CCOCC1 [Foretinib] (partner 0.25 µM)
In short: (§1)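 Each reported value is a median over duplicate plates. It expresses relative viability: treated-well nuclei count divided by vehicle-well nuclei count. Lung cancer cell lines in 1536-well plates were dosed by pin tool a day after seeding, alone with one drug or with a fixed anchor-drug dose plus five library-drug doses (not always all listed) in √10 steps, and nuclei were counted after 5 days.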

CAP-232 + Olaparib = compound: C[C@H]([C@@H](C(=O)N)NC(=O)[C@@H]1CSSC[C@@H](C(=O)N[C@H](C(=O)N[C@@H](C(=O)N[C@H](C(=O)N1)CCCCN)CC2=CNC3=CC=CC=C32)CC4=CC=C(C=C4)O)NC(=O)[C@@H](CC5=CC=CC=C5)N)O [CAP-232] + O=C(c1cc(Cc2n[nH]c(=O)c3ccccc23)ccc1F)N1CCN(C(=O)C2CC2)CC1 [Olaparib] (partner 8 µM)
In short: as §1

CAP-232 + Dasatinib = compound: C[C@H]([C@@H](C(=O)N)NC(=O)[C@@H]1CSSC[C@@H](C(=O)N[C@H](C(=O)N[C@@H](C(=O)N[C@H](C(=O)N1)CCCCN)CC2=CNC3=CC=CC=C32)CC4=CC=C(C=C4)O)NC(=O)[C@@H](CC5=CC=CC=C5)N)O [CAP-232] + Cc1nc(Nc2ncc(C(=O)Nc3c(C)cccc3Cl)s2)cc(N2CCN(CCO)CC2)n1 [Dasatinib] (partner 0.075 µM)
In short: as §1

CAP-232 + Navitoclax = compound: C[C@H]([C@@H](C(=O)N)NC(=O)[C@@H]1CSSC[C@@H](C(=O)N[C@H](C(=O)N[C@@H](C(=O)N[C@H](C(=O)N1)CCCCN)CC2=CNC3=CC=CC=C32)CC4=CC=C(C=C4)O)NC(=O)[C@@H](CC5=CC=CC=C5)N)O [CAP-232] + CC1(C)CCC(c2ccc(Cl)cc2)=C(CN2CCN(c3ccc(C(=O)NS(=O)(=O)c4ccc(N[C@H](CCN5CCOCC5)CSc5ccccc5)c(S(=O)(=O)C(F)(F)F)c4)cc3)CC2)C1 [Navitoclax] (partner 0.5 µM)
In short: as §1

CAP-232 + Decitabine = compound: C[C@H]([C@@H](C(=O)N)NC(=O)[C@@H]1CSSC[C@@H](C(=O)N[C@H](C(=O)N[C@@H](C(=O)N[C@H](C(=O)N1)CCCCN)CC2=CNC3=CC=CC=C32)CC4=CC=C(C=C4)O)NC(=O)[C@@H](CC5=CC=CC=C5)N)O [CAP-232] + Nc1ncn([C@H]2C[C@H](O)[C@@H](CO)O2)c(=O)n1 [Decitabine] (partner 2 µM)
In short: as §1

| Cell Line | relative viability (CAP-232 + Foretinib; first compound 0.4 µM) | relative viability (CAP-232 + Foretinib; first compound 1.265 µM) | relative viability (CAP-232 + Foretinib; first compound 4 µM) | relative viability (CAP-232 + Foretinib; first compound 12.65 µM) | relative viability (CAP-232 + Olaparib; first compound 0.4 µM) | relative viability (CAP-232 + Olaparib; first compound 1.265 µM) | relative viability (CAP-232 + Olaparib; first compound 4 µM) | relative viability (CAP-232 + Olaparib; first compound 12.65 µM) | relative viability (CAP-232 + Dasatinib; first compound 0.4 µM) | relative viability (CAP-232 + Dasatinib; first compound 1.265 µM) | relative viability (CAP-232 + Dasatinib; first compound 4 µM) | relative viability (CAP-232 + Dasatinib; first compound 12.65 µM) | relative viability (CAP-232 + Navitoclax; first compound 0.4 µM) | relative viability (CAP-232 + Navitoclax; first compound 1.265 µM) | relative viability (CAP-232 + Navitoclax; first compound 4 µM) | relative viability (CAP-232 + Navitoclax; first compound 12.65 µM) | relative viability (CAP-232 + Decitabine; first compound 0.4 µM) | relative viability (CAP-232 + Decitabine; first compound 1.265 µM) | relative viability (CAP-232 + Decitabine; first compound 4 µM) | relative viability (CAP-232 + Decitabine; first compound 12.65 µM) |
| --- | --- | --- | --- | --- | --- | --- | --- | --- | --- | --- | --- | --- | --- | --- | --- | --- | --- | --- | --- | --- |
| PC-14 | 1.06 | 0.939 | 1.06 | 0.86 | 0.265 | 0.264 | 0.213 | 0.239 | 0.211 | 0.256 | 0.253 | 0.129 | 0.93 | 1.02 | 1.16 | 0.848 | 0.215 | 0.191 | 0.205 | 0.151 |
| NCI-H3122 | 0.91 | 0.97 | 0.795 | 1.03 | 0.664 | 0.656 | 0.847 | 0.546 | 0.781 | 0.804 | 0.847 | 0.833 | 1.01 | 0.988 | 1.02 | 1.03 | 0.392 | 0.364 | 0.458 | 0.426 |
| SK-MES-1 | 0.935 | 1.04 | 0.95 | 0.771 | 0.747 | 0.718 | 0.762 | 0.607 | 0.339 | 0.317 | 0.341 | 0.203 | 1.28 | 1.17 | 1.45 | 1.1 | 0.452 | 0.344 | 0.384 | 0.274 |
| NCI-H1944 | 0.849 | 0.862 | 0.906 | 0.882 | 0.385 | 0.368 | 0.411 | 0.357 | 0.215 | 0.197 | 0.21 | 0.182 | 1.06 | 1.01 | 1.04 | 0.98 | 0.426 | 0.424 | 0.363 | 0.424 |
| LK-2 | 1.4 | 1.22 | 1.54 | 1.19 | 0.762 | 0.834 | 0.702 | 0.811 | 0.295 | 0.133 | 0.202 | 0.201 | 0.733 | 0.791 | 1.01 | 0.622 | 0.357 | 0.234 | 0.37 | 0.302 |
| RERF-LC-KJ | 0.87 | 0.993 | 0.951 | 0.884 | 0.98 | 0.893 | 1.03 | 0.721 | 0.695 | 0.871 | 0.735 | 0.27 | 1.05 | 1.08 | 1.02 | 0.703 | 0.659 | 0.758 | 0.79 | 0.41 |
| COR-L23 | 1.02 | 0.957 | 1.1 | 0.851 | 0.43 | 0.403 | 0.404 | 0.279 | 0.506 | 0.575 | 0.531 | 0.342 | 1.02 | 1.1 | 0.977 | 0.572 | 0.451 | 0.407 | 0.471 | 0.337 |
| NCI-H1355 | 1.07 | 1.04 | 0.945 | 0.908 | 0.737 | 0.747 | 0.769 | 0.703 | 0.847 | 0.736 | 0.618 | 0.5 | 0.96 | 0.921 | 1.14 | 0.966 | 0.339 | 0.33 | 0.391 | 0.338 |
| NCI-H460 | 1.02 | 1.1 | 1.22 | 0.622 | 0.515 | 0.384 | 0.526 | 0.332 | 0.704 | 0.478 | 0.581 | 0.419 | 1.02 | 1.36 | 1.11 | 0.542 | 0.496 | 0.475 | 0.541 | 0.17 |
| NCI-H1993 | 0.804 | 0.775 | 0.829 | 0.757 | 1.32 | 1.14 | 0.933 | 1.08 | 0.619 | 0.539 | 0.682 | 0.558 | 0.961 | 0.864 | 1.15 | 0.907 | 0.569 | 0.676 | 0.608 | 0.559 |
| ChaGo-K-1 | 0.954 | 0.779 | 0.836 | 0.912 | 0.425 | 0.428 | 0.456 | 0.421 | 0.666 | 0.611 | 0.614 | 0.506 | 1.43 | 0.818 | 0.973 | 0.734 | 0.497 | 0.542 | 0.506 | 0.547 |
| HCC-15 | 1.08 | 1.07 | 1.09 | 0.652 | 0.65 | 0.711 | 0.737 | 0.55 | 0.629 | 0.601 | 0.693 | 0.262 | 0.736 | 0.726 | 0.774 | 0.576 | 0.686 | 0.62 | 0.638 | 0.176 |
| NCI-H23 | 0.926 | 0.883 | 0.718 | 0.802 | 0.34 | 0.301 | 0.306 | 0.27 | 0.714 | 0.609 | 0.891 | 0.844 | 0.806 | 0.861 | 0.982 | 0.713 | 0.293 | 0.295 | 0.296 | 0.295 |
